Measurements reported in patent US6579881B2 (Eisai Co., Ltd., priority 1997, dated 2003).
Structures can show the parent of a compound that is named as a salt. Where two headings read alike, the source gives them in different places.

Columns and labels:
serotonin 2 receptor = serotonin 2 receptor (Rattus norvegicus, UniProt P14842); experiment: Binding test on [3H] ketanserin (serotonin 2 receptor)
serotonin 1A receptor = target: T1, serotonin 1A receptor (Rattus norvegicus, UniProt P19327); experiment: Binding test on [3H] 8-hydroxy-dipropylaminotetralin (serotonin 1A receptor); conditions: [3H] 8-OH-DPAT 0.5 nM, receptor fraction of rat hippocampus; read-out: 5HT1a
T1 construct: To the receptor fraction of the hippocampus were added a test compound and 0.5 nM of [^3H]; 8-hydroxy-dipropylaminotetralin; from tissue; host or cells: SD rat hippocampus, membrane (receptor) fraction
T1 sequence (P19327 1-422): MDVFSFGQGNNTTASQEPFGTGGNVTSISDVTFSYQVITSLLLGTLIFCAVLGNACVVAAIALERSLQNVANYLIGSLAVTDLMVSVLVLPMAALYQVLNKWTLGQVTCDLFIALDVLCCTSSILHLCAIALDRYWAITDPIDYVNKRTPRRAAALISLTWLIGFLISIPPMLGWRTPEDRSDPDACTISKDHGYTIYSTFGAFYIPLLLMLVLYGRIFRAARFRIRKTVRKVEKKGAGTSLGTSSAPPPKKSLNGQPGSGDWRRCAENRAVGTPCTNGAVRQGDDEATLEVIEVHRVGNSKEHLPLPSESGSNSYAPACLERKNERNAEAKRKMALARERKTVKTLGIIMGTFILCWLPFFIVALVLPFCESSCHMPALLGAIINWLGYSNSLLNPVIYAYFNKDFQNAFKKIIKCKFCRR

α1 adrenalin receptor = experiment: Binding test on [3H] prazosin (α1 adrenalin receptor); design: species or system rat
Experimental: Methysergide maleate was dissolved in distilled water before using.
Use was made of SD rats aged 6 to 8 weeks.
The rats were sacrificed by dcapitation to extirpate the cerebra.
The hippocampus was mixed with 50 times (on the wet weight basis) as much a 0.32 M sucrose solution while the cortex was mixed with 10 times as much the same solution. Each mixture was homogenized by using a Teflon glass homogenizer and centrifuged at 1,000×g for 10 min. The supernatant thus obtained was further centrifuged at 20,000×g for 20 min. The obtained precipitate was re-suspended in 50 times (based on the intial wet weight; in the case of the hippocampus) or 10 times (in the case of the cortex) as much a 50 mM Tris hydrochloride (pH 7.4) and incubated at room temperature for 30 min. After centrifuging at 20,000×g for 20 min, the obtained precipitate was further suspended and centrifuged twice each in the same manner. The precipitate thus obtained was suspended in 100 times (based on the initial wet weight; in the case of the hippocampus) or 20 times (in the case of the cortex) as much a 50 mM Tris hydrochloride solution (pH 7.4) to thereby give a receptor fraction. This receptor fraction was stored at −80° C. until using.
(Binding Test on [^3H] Prazosin)
Next, it was filtered through a glass filter with the use of a cell harvester. After washing the glass filter with 50 mM Tris hydrochloride (pH 7.4), the radioactivity of the receptor was measured with a liquid scintillation counter. The binding detected in the presence of 10 μM of phentolamine was referred to as the nonspecific binding.
Subsequently, the abilities of typical examples of the compounds of the present invention to bind to the α1 adrenalin receptor were evaluated by the test method described above.

[1] = [3H] ketanserin 0.3 nM, receptor fraction of rat cerebral cortex, read-out: 5HT2
[2] = [3H] prazosin about 0.2 nM, receptor fraction of rat cerebral cortex

Sequence of serotonin 2 receptor (P14842 whole entry): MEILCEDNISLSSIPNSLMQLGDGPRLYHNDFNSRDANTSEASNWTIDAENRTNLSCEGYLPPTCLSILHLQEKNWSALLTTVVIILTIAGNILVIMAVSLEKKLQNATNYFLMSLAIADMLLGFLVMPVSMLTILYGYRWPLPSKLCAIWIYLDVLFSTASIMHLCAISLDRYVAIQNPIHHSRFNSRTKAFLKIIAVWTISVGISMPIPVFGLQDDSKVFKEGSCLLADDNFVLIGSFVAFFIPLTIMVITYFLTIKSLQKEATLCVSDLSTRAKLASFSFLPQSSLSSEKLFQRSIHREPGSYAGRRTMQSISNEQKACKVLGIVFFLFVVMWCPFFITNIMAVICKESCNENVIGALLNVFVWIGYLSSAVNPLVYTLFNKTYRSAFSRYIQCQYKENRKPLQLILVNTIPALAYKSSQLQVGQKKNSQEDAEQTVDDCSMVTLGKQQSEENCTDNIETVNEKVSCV

SMILES | Ki (serotonin 2 receptor; [1]) [µM] | Ki (serotonin 1A receptor) [µM] | Ki (α1 adrenalin receptor; [2]) [µM] | Ki (α1 adrenalin receptor) [µM] | Ki (serotonin 2 receptor) [µM]
c1ccc2c(c1)CCN2C1CCN(CC2COc3ccccc3O2)CC1 (stereo not drawn) [Example 77, 1-{1-[(1,4-benzodioxan-2-yl)methyl]piperidin-4-yl}indoline] | 0.0137 | 0.0445 | 0.249 |  | 
CNOOSCc1ccc2c(c1)N(C1CCN(CCc3ccc(F)cc3)CC1)CC2 [Example 164, 1-[1-(4-fluorophenethyl)piperidin-4-yl]-6-(N-methylsulfamoylmethyl)indoline] | 0.0341 | 0.00054 | 0.638 |  | 
COc1cccc(Cc2ccc3c(c2)N(C2CCN(CCc4ccc(F)cc4)CC2)CC3)n1 [Example 187, 1-[1-(4-fluorophenethyl)piperidin-4-yl]-6-[1-(2-methoxypyridin-6-yl)methyl]indoline] | 0.00501 | 0.065 | > 0.2 |  | 
CC1CN(C2CCN(CCc3ccc(F)cc3)CC2)c2ccccc21 (stereo not drawn) [Example 216, 1-[1-(4-fluorophenethyl)piperidin-4-yl]-3-methylindoline] | 0.0429 | 0.0047 | 0.0816 |  | 
Nc1nc2cc3c(cc2s1)CCN3C1CCN(CCc2ccc(F)cc2)CC1 [Example 235] | 0.0146 | 0.0002 | 0.0778 |  | 
COc1ccc2c(c1)C(N1CCN(CCc3ccc(F)cc3)CC1)CC2 (stereo not drawn) [Example 250, 1-{4-[2-(4-fluorophenyl)ethyl]piperazin-1-yl}-6-methoxyindan Hydrochloride] | 0.0188 | 0.0016 |  | 0.263 | 
Fc1ccc(CCN2CCN(C3CCCc4cnccc43)CC2)cc1 (stereo not drawn) [Example 283, 5-{4-[2-(4-fluorophenyl)ethyl]piperazin-1-yl}-5,6,7,8-tetrahydroisoquinoline Hydrochloride] | 0.0409 | 0.0395 |  | 0.197 | 
COc1ccc2c(c1)N(C1CCCN(CCc3ccc(F)cc3)CC1)CC2 (stereo not drawn) [Example 291, 1-[1-(4-fluorophenethyl)homopiperidin-4-yl]-6-methoxyindoline] | 0.101 | 0.0069 | 0.172 |  | 
COc1ccc2c(c1)N(C1CCN(CCc3ccc(F)cc3)C1)CC2 (stereo not drawn) [Example 292, 1-[1-(4-fluorophenethyl)pyrrolidin-3-yl]-6-methoxyindoline] | 0.0588 | 0.092 | 0.178 |  | 
O=C(Cc1ccc2ccn(C3CCN(CCc4ccc(F)cc4)CC3)c2c1)N1CCCC1 [Example 298, 1-[1-(4-fluorophenethyl)piperidin-4-yl]-6-(tetramethylenecarbamoylmethyl)indole Oxalate] | 0.0213 | 0.00186 | 0.0279 |  | 
O=C(Cc1ccc2ccn(C3CCN(CCc4ccc(F)cc4)CC3)c2c1)N(CCO)CCO [Example 303, 1-[1-(4-fluorophenethyl)piperidin-4-yl]-6-[bis(2-hydroxyethyl)]carbamoylmethylindole Oxalate] | 0.0358 | 0.0036 | 0.307 |  | 
NC(=O)CNC(=O)Cc1ccc2ccn(C3CCN(CCc4ccc(F)cc4)CC3)c2c1 [Example 306, 1-[1-(4-fluorophenethyl)piperidin-4-yl]-6-(carbamoylmethyl)carbamoylmethylindole Oxalate] | 0.00387 | 0.00282 | 0.147 |  | 
N#CCNC(=O)Cc1ccc2ccn(C3CCN(CCc4ccc(F)cc4)CC3)c2c1 [Example 308, 1-[1-(4-fluorophenethyl)piperidin-4-yl]-6-cyanomethylcarbamoylmethylindole Oxalate] | 0.00384 | 0.00073 | 0.0594 |  | 
CCNC(=O)CCc1ccc2ccn(C3CCN(CCc4ccc(F)cc4)CC3)c2c1 [Example 311, 1-[1-(4-fluorophenethyl)piperidin-4-yl]-6-[2-(ethylcarbamoyl)ethyl]indole Oxalate] | 0.0464 | 0.00108 | 0.085 |  | 
O=C(Cc1ccc2ccn(C3CCN(CCc4ccc(F)cc4)CC3)c2c1)NCCN1CCCC1 [Example 312, 1-[1-(4-fluorophenethyl)piperidin-4-yl]-6-[2-(pyrrolidin-1-yl)ethyl]carbamoylmethylindole Oxalate] | 0.00056 | 0.00827 | 0.0533 |  | 
O=C(Cc1ccc2ccn(C3CCN(CCc4ccc(F)cc4)CC3)c2c1)NCCN1CCOCC1 [Example 313, 1-[1-(4-fluorophenethyl)piperidin-4-yl]-6-[2-(morpholin-4-yl)ethyl]carbamoylmethylindole Oxalate] | 0.00158 | 0.0131 | 0.144 |  | 
O=C(Cc1ccc2ccn(C3CCN(CCc4ccc(F)cc4)CC3)c2c1)NCc1ccncc1 [Example 314, 1-[1-(4-fluorophenethyl)piperidin-4-yl]-6-(pyridin-4-yl)methylcarbamoylmethylindole] | 0.0011 | 0.00072 | 0.0513 |  | 
COc1ccc(C(=O)c2ccc3ccn(C4CCN(CCc5ccc(F)cc5)CC4)c3c2)cn1 [Example 317, 1-[1-(4-fluorophenethyl)piperidin-4-yl]-6-(2-methoxypyridin-5-ylcarbonyl)indole Oxalate] | > 0.02 | 0.00076 | 0.4 |  | 
COc1ccc(C(O)c2ccc3ccn(C4CCN(CCc5ccc(F)cc5)CC4)c3c2)cn1 (stereo not drawn) [Example 318, 1-[1-(4-fluorophenethyl)piperidin-4-yl]-6-[(2-methoxypyridin-5-yl)hydroxymethyl]indole Oxalate] | 0.0083 | 0.00149 | 0.0466 |  | 
CCC(O)c1ccc2ccn(C3CCN(CCc4ccc(F)cc4)CC3)c2c1 (stereo not drawn) [Example 319, 1-[1-(4-fluorophenethyl)piperidin-4-yl]-6-(1-hydroxyproyl)indole Oxalate] | 0.0245 | 0.00056 | 0.0425 |  | 
O=S1(=O)CCCN1Cc1ccc2ccn(C3CCN(CCc4ccc(F)cc4)CC3)c2c1 [Example 326, 1-[1-(4-fluorophenethyl)piperidin-4-yl]-6-(1,3-propanesultam-2-yl)methylindole] | > 0.02 | 0.0004 | 0.167 |  | 
O=C(CCCO)NCc1ccc2ccn(C3CCN(CCc4ccc(F)cc4)CC3)c2c1 [Example 329, 1-[1-(4-fluorophenethyl)piperidin-4-yl]-6-(4-hydroxybutyroylamidomethyl)indole Oxalate] | 0.00241 | 0.00206 | 0.149 |  | 
CN(c1ccc2ccn(C3CCN(CCc4ccc(F)cc4)CC3)c2c1)S(C)(=O)=O [Example 335] |  | 0.00022 | 0.0284 |  | > 0.02
O=C(Cc1ccc2ccn(C3CCN(CCc4ccc(F)cc4)CC3)c2c1)NCC(O)CO (stereo not drawn) [Example 340, 1-[1-(4-fluorophenethyl)piperidin-4-yl]-6-(1,2-dihydroxypropan-3-yl)carbamoylmethylindole Oxalate] | 0.00284 | 0.00302 | 0.34 |  | 
O=C(Cc1ccc2ccn(C3CCN(CCc4ccc(F)cc4)CC3)c2c1)NCc1ccccn1 [Example 341, 1-[1-(4-fluorophenethyl)piperidin-4-yl]-6-(pyridin-2-yl)methylcarbamoylmethylindole Oxalate] | 0.00067 | 0.00208 | 0.0476 |  | 
CC(=O)N1CCC(CNC(=O)Cc2ccc3ccn(C4CCN(CCc5ccc(F)cc5)CC4)c3c2)CC1 [Example 343, Oxalate] |  | 0.00154 | 0.0381 |  | 0.00164
